# pIC50: −log10 of the molar value.
# Target: NP-1 (Homo sapiens, UniProt O14786)
# Test: Biotinylated-VEGF-A165 (bt-VEGF-A165) binding to NP-1
# Details: for inhibition at 3 µM: 3 μM compound, read-out: Screen (% inhibition at 3 μM); for inhibition at 30 µM: 30 μM compound, read-out: Screen (% inhibition at 30 μM)
# Outline: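 Cell format: DU145 cells transduced with adenoviral full-length human NP-1, 2 nM bt-VEGF-A165, DMEM/25 mM HEPES pH 7.3/0.1% BSA; plate format: NP-1 coated at 3 μg/ml, 0.25 nM bt-VEGF-A165, PBS with 1% DMSO. Both 2 h at room temperature; bound ligand read by streptavidin-HRP at A450 nm.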
# Sequence of NP-1 (O14786 22-923): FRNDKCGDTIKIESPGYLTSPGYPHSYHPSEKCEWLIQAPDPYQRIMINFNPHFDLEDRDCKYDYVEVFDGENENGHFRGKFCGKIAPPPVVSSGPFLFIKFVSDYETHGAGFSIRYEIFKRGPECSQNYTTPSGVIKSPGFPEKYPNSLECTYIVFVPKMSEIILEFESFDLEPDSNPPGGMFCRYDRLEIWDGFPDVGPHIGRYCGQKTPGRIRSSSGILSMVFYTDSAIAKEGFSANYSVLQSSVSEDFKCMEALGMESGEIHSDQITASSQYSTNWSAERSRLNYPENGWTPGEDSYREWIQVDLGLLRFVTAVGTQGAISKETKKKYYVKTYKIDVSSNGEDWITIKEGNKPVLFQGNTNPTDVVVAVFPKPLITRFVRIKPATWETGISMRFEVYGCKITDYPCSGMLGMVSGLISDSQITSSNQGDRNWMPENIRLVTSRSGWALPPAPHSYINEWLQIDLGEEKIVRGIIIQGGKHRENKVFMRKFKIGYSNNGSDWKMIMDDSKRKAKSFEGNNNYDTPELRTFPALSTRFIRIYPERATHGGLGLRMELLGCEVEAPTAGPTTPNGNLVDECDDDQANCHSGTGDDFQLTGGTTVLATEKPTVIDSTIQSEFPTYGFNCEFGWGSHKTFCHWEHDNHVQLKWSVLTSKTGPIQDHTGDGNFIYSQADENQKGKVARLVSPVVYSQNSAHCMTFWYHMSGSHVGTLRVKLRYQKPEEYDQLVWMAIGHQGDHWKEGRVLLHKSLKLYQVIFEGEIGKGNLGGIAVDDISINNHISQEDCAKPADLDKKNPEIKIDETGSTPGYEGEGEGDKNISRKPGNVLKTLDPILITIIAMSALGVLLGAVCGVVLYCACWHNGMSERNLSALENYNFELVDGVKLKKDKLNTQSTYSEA
Compound,pIC50,inhibition at 3 µM,inhibition at 30 µM
"N=C(N)NCCC[C@H](NC(=O)c1sccc1NS(=O)(=O)c1cccc(NCc2csc(N3CCN(c4cccnc4)CC3)n2)c1)C(=O)O [Compound 62, (S)-5-guanidino-2-{[3-(3-{[2-(4-pyridin-3-yl-piperazin-1-yl)-thiazol-4-ylmethyl]-amino}-benzenesulfonylamino)-thiophene-2-carbonyl]-amino}-pentanoic acid]",,68%,95%
"N=C(N)NCCC[C@H](NC(=O)c1sccc1NS(=O)(=O)c1cccc(NCc2csc(N3CCN(Cc4ccccn4)CC3)n2)c1)C(=O)O [Compound 65, (S)-5-guanidino-2-{[3-(3-{[2-(4-pyridin-2-ylmethyl-piperazin-1-yl)-thiazol-4-ylmethyl]-amino}-benzenesulfonylamino)-thiophene-2-carbonyl]-amino}-pentanoic acid]",,40%,90%
Cc1cc(CNc2nc(CNc3cccc(S(=O)(=O)Nc4ccsc4C(=O)N[C@@H](CCCNC(=N)N)C(=O)O)c3)cs2)no1 [Compound 67],,44%,90%
N=C(N)NCCC[C@H](NC(=O)c1sccc1NS(=O)(=O)c1cccc(NCc2cnn(CCN3CCN(c4ccccn4)CC3)c2)c1)C(=O)O [Compound 68],,37%,89%
"COc1ccccc1-c1nc(CNc2cccc(S(=O)(=O)Nc3ccsc3C(=O)N[C@@H](CCCNC(=N)N)C(=O)O)c2)no1 [Compound 69, (S)-5-Guanidino-2-{[3-(3-{[5-(2-methyoxy-phenyl)-[1,2,4]oxadiazol-3-ylmethyl]-amino}-benzenesulfonylamino)-thiophene-2-carbonyl]-amino}-pentanoic acid]",,37%,79%
"N#Cc1cccc(NC(=O)CNc2cccc(S(=O)(=O)Nc3ccsc3C(=O)N[C@@H](CCCNC(=N)N)C(=O)O)c2)c1 [Compound 70, (S)-2-{[3-(3-{[(3-Cyano-phenylcarbamoyl)-methyl]-amino}-benzenesulfonylamino)-thiophene-2-carbonyl]-amino}-5-guanidino-pentanoic acid]",,25%,63%

# Further lines, results first:
pIC50,inhibition at 3 µM,inhibition at 30 µM,Compound
6.50,70%,96%,"N=C(N)NCCC[C@H](NC(=O)c1sccc1NS(=O)(=O)c1cccc(NCc2csc(N3CCC(N4CCOCC4)CC3)n2)c1)C(=O)O [Compound 60, (S)-5-guanidino-2-{[3-(3-{[2-(4-morpholin-4-yl-piperidin-1-yl)-thiazol-4-ylmethyl]-amino}-benzenesulfonylamino)-thiophene-2-carbonyl]-amino}-pentanoic acid]"
,49%,83%,"N=C(N)NCCC[C@H](NC(=O)c1sccc1NS(=O)(=O)c1cccc(NCc2csc(N3CCN(c4ccccn4)CC3)n2)c1)C(=O)O [Compound 63, (S)-5-guanidino-2-{[3-(3-{[2-(4-pyridin-2-yl-piperazin-1-yl)-thiazol-4-ylmethyl]-amino}-benzenesulfonylamino)-thiophene-2-carbonyl]-amino}-pentanoic acid]"
,72%,92%,"N=C(N)NCCC[C@H](NC(=O)c1sccc1NS(=O)(=O)c1cccc(NCc2csc(N3CCC(N)CC3)n2)c1)C(=O)O [Compound 64, (S)-5-guanidino-2-{[3-(3-{[2-(4-amino-piperidin-1-yl)-thiazol-4-ylmethyl]-amino}-benzenesulfonylamino)-thiophene-2-carbonyl]-amino}-pentanoic acid]"
,71%,93%,"N=C(N)NCCC[C@H](NC(=O)c1sccc1NS(=O)(=O)c1cccc(NCc2csc(N3CCN(c4ncccn4)CC3)n2)c1)C(=O)O [Compound 66, (S)-5-guanidino-2-{[3-(3-{[2-(4-pyrimidin-2-yl-piperazin-1-yl)-thiazol-4-ylmethyl]-amino}-benzenesulfonylamino)-thiophene-2-carbonyl]-amino}-pentanoic acid]"
